According to patent US12202790B2, “Sulfonamide derivatives having selective Nox inhibiting activity” (GLUCOX BIOTECH AB, priority 2018, dated 2025):

Legend:
DPPH redox assay = test: DPPH redox assay; parameters: key: The sign “—” stands for “inactive”; details: redox activity control
Method: DPPH, a well-known sensitive chemical of monitoring reactions involving radicals described by Xiong Q, et al., Biol Pharm Bull 1996; 19:1580-1585, was used as control to exclude any redox active compound. DPPH was incubated with decreasing concentrations (200-0.003 μM) of compounds of the invention or prior art compound GKT136901 (as a positive control). The plate was kept in the dark for 60 min, after which the absorbance of the solution was measured at 518 nm.

Nox2 = Nox2 (Homo sapiens (Human), UniProt P04839); test: Nox2 inhibition in human neutrophils, isoluminol-dependent chemiluminescence; type: cell-based; parameters: key to IC50 Nox2: The sign “—” stands for “inactive”; details: PMA stimulated human neutrophils
Sequence of Nox2 (P04839 2-570): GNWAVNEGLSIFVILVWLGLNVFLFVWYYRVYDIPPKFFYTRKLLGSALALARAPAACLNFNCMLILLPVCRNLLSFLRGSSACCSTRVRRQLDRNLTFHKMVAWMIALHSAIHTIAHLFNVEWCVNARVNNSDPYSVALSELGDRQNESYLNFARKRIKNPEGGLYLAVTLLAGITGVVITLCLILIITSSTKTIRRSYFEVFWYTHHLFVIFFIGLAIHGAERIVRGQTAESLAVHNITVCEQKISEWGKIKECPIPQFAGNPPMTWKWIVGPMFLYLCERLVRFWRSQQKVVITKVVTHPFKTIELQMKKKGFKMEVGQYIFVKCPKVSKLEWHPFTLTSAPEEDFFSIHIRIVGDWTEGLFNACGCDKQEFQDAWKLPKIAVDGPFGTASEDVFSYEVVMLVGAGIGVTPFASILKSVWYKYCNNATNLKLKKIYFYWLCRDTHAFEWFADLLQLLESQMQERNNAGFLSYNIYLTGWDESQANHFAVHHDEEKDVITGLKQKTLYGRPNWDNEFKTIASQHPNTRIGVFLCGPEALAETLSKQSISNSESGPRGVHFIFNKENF
Sequence of Nox2 (P13498 2-195 partner): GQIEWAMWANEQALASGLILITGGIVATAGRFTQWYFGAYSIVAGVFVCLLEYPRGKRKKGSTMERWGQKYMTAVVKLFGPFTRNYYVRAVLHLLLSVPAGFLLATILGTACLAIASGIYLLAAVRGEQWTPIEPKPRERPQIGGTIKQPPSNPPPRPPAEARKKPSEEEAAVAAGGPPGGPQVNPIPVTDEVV
Method: (§1) HEK293 overexpressing Nox4 (CJ Nox4) cells were purchased from Redoxis, Lund, Sweden. HEK 293 cells expressing Nox5, Nox3 (HEK TRex) and CHO cells expressing Nox1, were a kind gift from Vincent Jaque Center Medical Universitaire, Geneva, Switzerland. Nox2 expressed in isolated neutrophils were isolated from whole blood (human), as previously described (Anvari E, et al., Free Radic Res 2015; 49:1308-1318).
Compounds of the invention were tested for selectivity against Nox2 in isolated neutrophils from whole blood (human), as previously described (Anvari E, et al., vide supra). Levels of ROS from PMA stimulated primary human neutrophils were measured using isoluminol-dependent chemiluminescence. […] The dye is excited by ROS and the light emitted when the excited molecules return to the ground state, relative to the amount of released ROS, is measured. This reaction is catalyzed and amplified by peroxidases. […] Compounds of the invention and GKT136901 were diluted at 4× working concentration and titrated from 100 μM to 0.006 μM in 1:4 steps as final concentrations. DPI was diluted in isoluminol buffer at 4× working concentration titrated from 10 μM to 0.0006 μM as final concentrations. PMA was diluted in isoluminol buffer at 4× working concentration for a final concentration of 30 ng/ml. […] Luminescence was detected using FluoStar Optima (BMG, Labtech). The isoluminol buffer was prepared immediately prior to addition to test plate. The buffer contained HRP fraction with or without PMA (30 ng/ml). Stock solutions at 6 μg/ml (PMA in HBSS), 3 μg/ml (PMA in DMSO) and 24 mM (DPI) were used and further diluted at the day of analysis to 4× working concentrations in HBSS with or without DMSO.

hNox4 = hNox4 (Homo sapiens (Human), UniProt Q9NPH5); test: Amplex Red assay of intact Nox4 expressing HEK293 cells; type: cell-based; details: read-out: IC50 Nox4
Sequence of hNox4 (Q9NPH5 whole entry): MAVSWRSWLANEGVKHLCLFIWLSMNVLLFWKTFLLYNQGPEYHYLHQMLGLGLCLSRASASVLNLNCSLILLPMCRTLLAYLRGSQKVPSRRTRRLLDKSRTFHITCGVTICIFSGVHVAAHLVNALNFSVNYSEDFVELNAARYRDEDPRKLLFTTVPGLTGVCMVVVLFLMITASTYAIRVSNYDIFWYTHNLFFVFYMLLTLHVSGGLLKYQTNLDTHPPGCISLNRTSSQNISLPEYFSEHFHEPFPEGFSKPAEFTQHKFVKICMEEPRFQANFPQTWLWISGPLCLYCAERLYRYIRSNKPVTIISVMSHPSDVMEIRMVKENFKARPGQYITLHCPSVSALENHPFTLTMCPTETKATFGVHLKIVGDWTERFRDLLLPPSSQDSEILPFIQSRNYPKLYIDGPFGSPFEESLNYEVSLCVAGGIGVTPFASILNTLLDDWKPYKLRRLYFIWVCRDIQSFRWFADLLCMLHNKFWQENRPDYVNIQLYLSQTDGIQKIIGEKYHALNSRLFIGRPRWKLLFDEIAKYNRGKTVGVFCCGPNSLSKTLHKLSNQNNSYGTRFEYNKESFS
Sequence of hNox4 (P13498 2-195 partner): as the sequence (P13498 2-195 partner) above
Method: as §1
HEK293 cells (CJ Nox4) were cultured in RPMI 1640 with Glutamax supplemented with FBS (10%), penicillin (100 U/ml) and streptomycin […] at 37° C. in air with 5% CO2. Every third passage 200 µg/ml neomycin were supplied in growth medium as selective agent.
(§2) Reactive oxygen produced in whole cells or in membrane preparation of Nox1, Nox3, Nox4, Nox5 and xanthine oxidase and glucose oxidase were determined using Amplex Red as detection probe of formed H2O2. Amplex Red (10-acetyl-3,7-dihydroxyphenoxazine) in combination with HRP and co-factors reacts with H2O2 in a 1:1 stoichiometry to form a highly fluorescent resorufin excitated at 544 nm producing emission at 590 nm.
(§3) Adherent cells (CHO, HEK) were collected by trypsinization, centrifuged, washed with HBSS, counted, and resuspended in HBSS. Cells were seeded in 96-well black flat bottom plates at a density of 50,000-100,000 cells/well. All compounds were dissolved in DMSO and concentrations ranging from 0.003 to 200 μM were tested in Nox cellular assays with a final concentration of DMSO of 1%. Cells were incubated at 37° C. with the compounds for 30 minutes before measurement. Cells expressing Nox1 and Nox2 were activated with the PKC activator PMA (0.1 μM). Nox5 was activated with the Ca2+ ionophore ionomycin (1 μM) and further enforced with PMA. The CJ HEK 293 cells overexpressed Nox4 constitutively. In the HTS screen HEK 293 TRex was used and tetracycline ([…]) was added 18 h before measurement to induce Nox4 expression. Production of hydrogen peroxide by Nox in intact cells was measured using Amplex Red fluorescence as described by Jaquet V, et al., Br J Pharmacol 2011; 164:507-520. Assay reagents including HRP ([…]) and Amplex Red (50 μM) were added to initiate production of hydrogen peroxide. Fluorescence was read in a fluorescence plate reader at 37° C. every minute between 30-60 minutes.

Nox5 = Nox5 (Homo sapiens (Human), UniProt Q96PH1); test: Amplex Red assay of Nox5 expressing HEK cells; type: cell-based; parameters: key: The sign “—” stands for “inactive”
Sequence of Nox5 (Q96PH1 whole entry): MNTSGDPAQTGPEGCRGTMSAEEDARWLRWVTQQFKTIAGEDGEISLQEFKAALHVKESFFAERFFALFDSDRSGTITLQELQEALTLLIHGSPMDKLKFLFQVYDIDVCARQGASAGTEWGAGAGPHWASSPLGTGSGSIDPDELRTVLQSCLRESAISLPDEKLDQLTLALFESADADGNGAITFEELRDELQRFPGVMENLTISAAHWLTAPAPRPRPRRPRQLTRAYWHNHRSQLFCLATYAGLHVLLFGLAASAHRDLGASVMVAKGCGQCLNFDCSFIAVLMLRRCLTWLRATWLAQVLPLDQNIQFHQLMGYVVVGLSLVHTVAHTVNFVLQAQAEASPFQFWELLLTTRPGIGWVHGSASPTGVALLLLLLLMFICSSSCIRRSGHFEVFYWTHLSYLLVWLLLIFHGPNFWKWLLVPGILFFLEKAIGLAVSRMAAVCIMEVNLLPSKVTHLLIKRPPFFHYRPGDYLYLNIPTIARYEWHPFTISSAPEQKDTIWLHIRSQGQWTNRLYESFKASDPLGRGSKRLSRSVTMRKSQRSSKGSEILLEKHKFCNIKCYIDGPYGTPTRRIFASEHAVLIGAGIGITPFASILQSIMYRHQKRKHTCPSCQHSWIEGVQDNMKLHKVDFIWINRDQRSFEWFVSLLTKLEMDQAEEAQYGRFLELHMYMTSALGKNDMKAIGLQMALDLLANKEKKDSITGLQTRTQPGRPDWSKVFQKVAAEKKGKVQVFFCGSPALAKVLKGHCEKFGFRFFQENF
Description: as §1
HEK293T cells expressing tetracycline-inducible human (Nox3 or Nox4) and HEK293 cells stably expressing human Nox5 were generated as described previously (Serrander et al., 2007a,b). HEK cells were cultured in Dulbecco's modified Eagle medium (DMEM) with 4.5 g/l glucose, supplemented with FBS (10%), penicillin (100 U/ml) and streptomycin […] at 37° C. in air with 5% CO2.
as §2, §3

xanthine oxidase = xanthine oxidase (Bos taurus (Bovine), UniProt P80457); test: Amplex Red xanthine oxidase (XO) assay; type: biochemical; parameters: key: The sign “—” stands for “inactive”
Sequence of xanthine oxidase (P80457 whole entry): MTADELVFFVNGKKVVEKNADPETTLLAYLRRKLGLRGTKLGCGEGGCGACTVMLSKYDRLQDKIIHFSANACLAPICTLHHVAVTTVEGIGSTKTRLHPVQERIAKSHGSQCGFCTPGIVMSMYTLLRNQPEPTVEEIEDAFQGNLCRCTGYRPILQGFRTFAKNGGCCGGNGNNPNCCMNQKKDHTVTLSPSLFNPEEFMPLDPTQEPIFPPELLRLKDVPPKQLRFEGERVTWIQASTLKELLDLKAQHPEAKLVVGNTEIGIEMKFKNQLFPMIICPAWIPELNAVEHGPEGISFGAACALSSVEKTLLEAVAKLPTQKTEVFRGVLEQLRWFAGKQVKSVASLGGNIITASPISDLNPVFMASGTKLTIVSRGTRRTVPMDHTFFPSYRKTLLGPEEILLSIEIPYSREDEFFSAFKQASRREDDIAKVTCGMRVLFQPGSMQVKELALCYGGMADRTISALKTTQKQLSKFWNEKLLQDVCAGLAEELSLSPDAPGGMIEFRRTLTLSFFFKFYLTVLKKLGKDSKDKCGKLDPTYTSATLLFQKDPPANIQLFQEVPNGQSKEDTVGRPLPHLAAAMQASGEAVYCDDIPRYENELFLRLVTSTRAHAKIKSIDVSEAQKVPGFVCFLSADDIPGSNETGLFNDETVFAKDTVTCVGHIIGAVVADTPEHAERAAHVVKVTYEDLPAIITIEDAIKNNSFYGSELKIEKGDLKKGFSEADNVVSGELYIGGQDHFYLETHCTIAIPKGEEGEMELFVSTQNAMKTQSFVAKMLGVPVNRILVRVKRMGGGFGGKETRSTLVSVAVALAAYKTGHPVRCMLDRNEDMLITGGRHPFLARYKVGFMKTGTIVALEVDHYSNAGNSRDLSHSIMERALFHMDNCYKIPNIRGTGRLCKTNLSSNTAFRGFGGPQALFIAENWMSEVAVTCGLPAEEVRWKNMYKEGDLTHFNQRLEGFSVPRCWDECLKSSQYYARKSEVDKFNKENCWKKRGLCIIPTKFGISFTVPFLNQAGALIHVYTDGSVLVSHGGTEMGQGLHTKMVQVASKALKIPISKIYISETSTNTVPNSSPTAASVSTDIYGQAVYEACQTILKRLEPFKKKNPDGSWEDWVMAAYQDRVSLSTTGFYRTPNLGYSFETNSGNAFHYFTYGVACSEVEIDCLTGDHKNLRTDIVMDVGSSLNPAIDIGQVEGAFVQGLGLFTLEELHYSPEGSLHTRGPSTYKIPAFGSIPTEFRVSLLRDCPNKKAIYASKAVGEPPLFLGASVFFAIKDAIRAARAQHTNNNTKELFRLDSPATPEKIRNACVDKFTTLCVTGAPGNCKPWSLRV
Method: as §2
The assay was designed for Amplex Red analysis of production of hydrogen peroxide. Test compounds were incubated with 5 mU/ml bovine derived xanthine oxidase for 15 min at room temperature followed by the addition of substrate and detection mix (final concentrations of 0.2 U/ml HRP, 5 μM hypoxanthine, and 50 μM Amplex Red). As described by Hirano K et al., Antioxid Redox Signal 2015 10; 23:358-374, production of hydrogen peroxide was followed by fluorescence detection during 30 min at 37° C. in a plate reader that use excitation at 544 nm producing emission at 590 nm.

Nox1 = Nox1 (Homo sapiens (Human), UniProt Q9Y5S8); test: Amplex Red assay of Nox1 expressing CHO cells; type: cell-based; parameters: key to IC50 Nox1: The sign “—” stands for “inactive”
Sequence of Nox1 (Q9Y5S8 whole entry): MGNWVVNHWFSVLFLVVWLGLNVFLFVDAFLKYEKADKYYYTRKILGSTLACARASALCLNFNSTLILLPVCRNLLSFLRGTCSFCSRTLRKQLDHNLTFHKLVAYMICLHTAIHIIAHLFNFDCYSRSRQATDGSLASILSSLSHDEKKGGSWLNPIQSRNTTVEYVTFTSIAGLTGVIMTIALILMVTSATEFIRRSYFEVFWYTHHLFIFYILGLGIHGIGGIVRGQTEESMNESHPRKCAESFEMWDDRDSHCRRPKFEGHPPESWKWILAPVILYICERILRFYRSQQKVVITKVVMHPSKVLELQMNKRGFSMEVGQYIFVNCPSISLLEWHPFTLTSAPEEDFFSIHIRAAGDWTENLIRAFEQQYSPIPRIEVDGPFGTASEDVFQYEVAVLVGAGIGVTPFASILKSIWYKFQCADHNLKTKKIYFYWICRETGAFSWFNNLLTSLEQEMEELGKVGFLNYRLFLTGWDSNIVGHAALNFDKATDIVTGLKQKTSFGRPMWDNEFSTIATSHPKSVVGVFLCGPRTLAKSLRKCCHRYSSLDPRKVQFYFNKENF
Sequence of Nox1 (P13498 2-195 partner): as the sequence (P13498 2-195 partner) above
Method: as §1
CHO cells expressing Nox1 were cultured in DMEM 12 medium (DMEM/F12) supplemented with FBS (10%), penicillin (100 U/ml) and streptomycin (100 μg/ml) at 37° C. in air with 5% CO2.
as §2, §3

Human islet cells = test: Effects on human islet cell viability; type: cell-based; details: 48 h, inhibitor 2 μM; for human islet cell death with cytokines: IL-1β (20 ng/ml)+IFN-γ (20 ng/ml); for human islet cell death with high glucose+palmitate: palmitate (1.5 mM)+high glucose (20 mM)
Method: Human islet cells were incubated at control condition, with the cytokines IL-1β (20 ng/ml)+IFN-γ (20 ng/ml), or with palmitate (1.5 mM+2% BSA)+high glucose (20 mM) (PH) for 2 days with or without Nox1 inhibitor ML-171 (2 μM), Nox2 inhibitor Phos-I2 (2 μM) or Example 17 (1 μM). Islets were photographed in an inverted fluorescence microscope and the intensities of red (PI) and blue (Bisbenzimide) signals were quantified using Image J software. Results are indicated as mean±S.E.M for 7 human islet donors.

| IC50 DPPH (DPPH redox assay) | IC50 Nox2 (Nox2) | IC50 (hNox4) [µM] | IC50 Nox5 (Nox5) | IC50 XO (xanthine oxidase) | IC50 Nox1 (Nox1) | IC50 (Nox2) [µM] | IC50 (Nox1) [µM] | Structure (SMILES) | human islet cell death with cytokines (Human islet cells) | human islet cell death with high glucose+palmitate (Human islet cells) |
| --- | --- | --- | --- | --- | --- | --- | --- | --- | --- | --- |
| — | — | 1.7 | — | — | — |  |  | Cc1ccccc1C(F)CNS(=O)(=O)c1c(Cl)cc(Br)cc1Cl (single isomer, unassigned) [Example 35 (isomer 1), 4-bromo-2,6-dichloro-N-[2-fluoro-2-(2-methylphenyl)ethyl]benzene-1-sulfonamide] |  |  |
| — | — | 4.9 | — | — | — |  |  | Cc1ccccc1C(F)CNS(=O)(=O)c1c(Cl)cc(Br)cc1Cl (single isomer, unassigned) [Example 35 (isomer 2), 4-bromo-2,6-dichloro-N-[2-fluoro-2-(2-methylphenyl)ethyl]benzene-1-sulfonamide] |  |  |
| — | — | 2.2 | — | — | — |  |  | Cc1cc(C)c(S(=O)(=O)NCCc2ccccc2F)c(C)c1 [Example 2, N-[2-(2-fluorophenyl)ethyl]-2,4,6-trimethylbenzene-1-sulfonamide] |  |  |
| — | — | 0.27 | — | — | — |  |  | Cc1cc(C)c(S(=O)(=O)NCCc2ccccc2Cl)c(C)c1 [Example 6, N-[2-(2-chlorophenyl)ethyl]-2,4,6-trimethylbenzene-1-sulfonamide] |  |  |
|  | — | 0.27 | — | — | — |  |  | Cc1cc(C)c(S(=O)(=O)NCCc2ccccc2Br)c(C)c1 [Example 7, N-[2-(2-bromophenyl)ethyl]-2,4,6-trimethylbenzene-1-sulfonamide] |  |  |
| — | — | 1.6 | — | — | — |  |  | Cc1c(C)c(S(=O)(=O)NCCc2ccccc2Cl)c(C)c2c1OC(C)(C)C2 [Example 9, N-[2-(2-chlorophenyl)ethyl]-2,2,4,6,7-pentamethyl-2,3-dihydro-1-benzofuran-5-sulfonamide] |  |  |
| — | — | 0.09 | — | — | — |  |  | Cc1cc(C)c(S(=O)(=O)NCCc2ccccc2C)c(C)c1 [Example 14, 2,4,6-trimethyl-N-[2-(2-methylphenyl)ethyl]benzene-1-sulfonamide] |  |  |
| — |  | 0.9 | — | — | — |  |  | O=S(=O)(NCCc1ccccc1Cl)c1c(Cl)cc(Br)cc1Cl [Example 20, 4-bromo-2,6-dichloro-N-[2-(2-chlorophenyl)ethyl]benzene-1-sulfonamide] |  |  |
| — |  | 1.1 | — | — | — |  |  | O=S(=O)(NCCc1ccccc1F)c1c(Cl)cc(C2CC2)cc1Cl [Example 25, 2,6-dichloro-4-cyclopropyl-N-[2-(2-fluorophenyl)ethyl]benzene-1-sulfonamide] |  |  |
| — |  | 1.6 | — | — | — |  |  | O=S(=O)(NCCc1ccccc1Cl)c1c(Cl)cc(C(F)(F)F)cc1Cl [Example 27, 2,6-dichloro-N-[2-(2-chlorophenyl)ethyl]-4-(trifluoromethyl)benzene-1-sulfonamide] |  |  |
| active |  | 1.6 |  |  |  | 9 | 0.5 | Cc1c2c(=O)n(-c3ccccc3Cl)[nH]c2cc(=O)n1Cc1ccccn1 [GKT136901, 2-(2-Chlorophenyl)-4-methyl-5-(pyridin-2-ylmethyl)-1H-pyrazolo[4,3-c]pyridine-3,6-dione, reference compound] |  |  |
|  |  |  |  |  |  |  |  | CC(=O)c1ccc2c(c1)Nc1ccccc1S2 [ML171] | failed to reduce human islet cell death | failed to reduce human islet cell death |
|  |  |  |  |  |  |  |  | O=[N+]([O-])c1cccc(C2Nc3ccc([N+](=O)[O-])cc3C3C=CCC32)c1 (stereo not shown) [Phox-I2] | failed to protect human islets against cytokines | partially protected against high glucose+palmitate |
